According to PMC10499988 (Nature Communications, 2023):
Read-outs that look alike come from different tables or passages of the source. Positions of bridges follow the written chain, without caps; N, C: chain ends. Residues, ends and D or L forms follow the SMILES beside them.

Legend:
HSA [1] = molecular target: T1, HSA (Homo sapiens, UniProt P02768); parameters: purchased Sigma-Aldrich A4327-1G; details: cited from earlier work
[2] = In vivo pharmacokinetic experiment, plasma LC-MS after tail vein injection
Method: All the procedures and experiments involving animals were carried out using a protocol approved by the Health Sciences Laboratory Animal Services (HSLAS), University of Alberta. The protocol was approved as per the Canadian Council on Animal Care (CCAC) guidelines. Approved protocol # AUP00002467. All mice (Strain: C57BL/6J) were maintained in pathogen-free conditions at the University of Alberta breeding facility. Housed on ventilated caging (Tecniplast); Temperature: 21 +/− 2 degrees Celsius; Humidity: 30–70% rH; Light Cycle: 12 L:12D. […] Peptide mixtures of 100 µM were prepared in PBS. Mice were administered with 200 µL of the peptide mixture solution with tail veil injection. A series of 6 blood samples were collected at time points from 2 min up to 240 min (Fig. 6B: 2 min, 60 min; Fig. 6C–E: 2 min, 60 min, 180 min; Supplementary Fig. 32: 2 min, 5 min, 30 min, 60 min, 120 min, 240 min). Samples were collected in tubes that contained sodium citrate as an anticoagulant and then centrifuged at 5 min at 2000 × g to collect the blood plasma. 10 µL of plasma portion were transferred into a tube containing 40 µL of 8:2 acetonitrile/water to precipitate proteins. The samples were centrifuged at 17,000 × g for 10 min at 4 °C. Supernatants were then transferred to new tubes and subjected to analysis by LC-MS. […]
assays. The fluorescent-labeled peptides w ere dissolved to 10 m M in D M SO and diluted to 20 µM in DM SO for use. Each well contained 19 µL of HSA in PBSwith the range of final […]
1 µL of 20 µM of fluorescentlly labeled peptide was added to the wells to a final concentration of 1 µM . Each measuring point was made in duplicate. Before measuring, the plate was centrifuged 500×g for 5 min at RT, incubated for 10 m in, and shaken for 5 m in the dark. The m easurem ent w as perform ed in Cytation5 Cell Imaging Multi-Mode Reader from BioTek. The data were analyzed and processed in […]
26. […]
prepared with the identical buffer as the peptides to a final concentration of 40 µM . […] The data were evaluated using the MicroCalTM OriginTM Version 5.0. […]

HSA [3] = molecular target: T1, HSA; details: 19F NMR competition
[4] = molecular target: Serum albumin (Homo sapiens) (UniProt P02768); details: cited from earlier work
[5] = Reactivity of macrocycles with thiol nucleophiles; format: physicochemical; details: several hours, basic pH
Excerpt: 6-10 Å and the PM F of the pocket 1 starts to deviate from the others, we performed hydrogen bond interaction searches with 3.5 Å cut off distance between a donor and an acceptor at intermediate regime from umbrella sampling simulations. These findings […]
of the peptide to the pocket 1 binding site of albumin. This was supported by the fact that […]
simulation time (Supplementary Fig. 27). O verall, these findings provide im portant insights into the m echanism of binding betw een the peptide and album in, w hich could inform the design of future albumin-binding peptides with improved affinity and specificity. The concurrence of the docking results and the experimental binding data provides strong evidence that our simulations accurately predicted the binding for 14c.
Supplementary Fig. 7. […] The OFS-SWCRC […]
peptide was added with one equivalent of GSH in 60% acetonitrile in 50 mM Tris-HCl at pH 8.5.
The reaction was monitored by LC–MS.
Supplementary Fig. 8. Stability of the PFS stapled peptides (A ) Results of the PFS-SW CRC mixed with 2-mercaptoethanol and analyzed by LC–MS after 1 hour and 3 weeks. The PFS-SW CRC macrocycle was combined with 1 equivalent of 2-mercaptoethanol in 60% acetonitrile and 50 mM Tris-HCl at pH 8.5. The mixture was monitored by LC–MS. […]
spectrum of 1 mg of PFS- […] mixed with 1 mg of HSA over 19 days in PBS. The mixture was monitored by 19F NMR in PBS, 10% D2O

[6] = C57BL/6J, mouse, plasma, iv, 200 uL of 100 uM peptide mixture

Molecule: CC[C@H](C)[C@H](NC(=O)[C@H](CC(C)C)NC(=O)[C@H](CCCNC(=N)N)NC(C)=O)C(=O)N[C@@H](CCC(=O)O)C(=O)N[C@@H](CC(=O)O)C(=O)N[C@H](C(=O)N[C@H]1CSSC[C@@H](C(=O)N[C@@H](CC(C)C)C(=O)N[C@@H](Cc2c[nH]c3ccccc23)C(=O)N[C@@H](CCC(=O)O)C(=O)N[C@@H](CC(=O)O)C(=O)N[C@@H](CC(=O)O)C(N)=O)NC(=O)CNC(=O)[C@H](Cc2c[nH]c3ccccc23)NC(=O)[C@H](CCCNC(=N)N)NC(=O)[C@@H]2CCCN2C(=O)[C@H](CC(C)C)NC1=O)[C@@H](C)CC [SA-21] (Ac-RLIEDICLPRWGCLWEDD-NH2; disulfide 7-13)
- Kd (HSA [1]; Discussion, reference not given, read-out: affinity of benchmark): 0.6 µM
- Kd (HSA [1]; read-out: binding affinity to HSA): ~0.5 µM
- level at 2 min [2, 6]: 40000 ng/mL
- level at 1 h [2, 6]: 30000 ng/mL
- plasma concentration in 3 h study, in words ([2]; mice, tail vein, 2, 60, 180 min): indistinguishable

Molecule: NC(=O)N1c2ccccc2C=Cc2ccccc21 [carbamazepine]
- influence on binding of 14c to HSA (HSA [3]): none of these drugs influenced the binding of 14c

Molecule: FITC-EYEYKpalmESE-NH2
- Kd [4]: 0.039 µM

Molecule: OFS-SWCRC
- reactivity with glutathione (GSH) [5]: reacted with GSH over 3 hours
